Assay results: article PMC8550792, “Evolution of kinase polypharmacology across HSP90 drug discovery” (Cell Chemical Biology, 2021)

Experiments:
HSP90AB1 = system: HSP90AB1; parameters: method as in ChEMBL23 (accessed: 23/08/2018); conditions: average of reported values; ref ChEMBL23 (accessed: 23/08/2018); cited from earlier work
BLK = target: T1, BLK (Homo sapiens, UniProt P51451); assay: HotSpot in vitro kinase radiometric assay; assay type: biochemical
T1 construct: purchased Reaction Biology (HotSpot contract assay)
In short: (§1)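 Radiometric catalytic assay: compounds incubated with kinase, substrate, cofactors and ³²P- or ³³P-γ-ATP. Reactions spotted onto filter paper that binds the labeled product, giving a direct measure of inhibition of catalytic activity without modified substrates or coupling enzymes.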

PDK4/PDKH4 = target: T2, PDK4/PDKH4 (Homo sapiens, UniProt Q16654); assay: HotSpot in vitro kinase radiometric assay; assay type: biochemical
T2 construct: purchased Reaction Biology (HotSpot contract assay)
In short: as §1

PDK2/PDHK2 = target: T3, PDK2/PDHK2 (Homo sapiens, UniProt Q15119); assay: HotSpot in vitro kinase radiometric assay; assay type: biochemical
T3 construct: purchased Reaction Biology (HotSpot contract assay)
In short: as §1

LYN B = target: T4, LYN B (Homo sapiens, UniProt P07948); assay: HotSpot in vitro kinase radiometric assay; assay type: biochemical
T4 construct: purchased Reaction Biology (HotSpot contract assay)
In short: as §1

c-Src = target: T5, c-Src (Homo sapiens, UniProt P12931); assay: HotSpot in vitro kinase radiometric assay; assay type: biochemical
T5 construct: purchased Reaction Biology (HotSpot contract assay)
In short: as §1

DDR1 = DDR1 (Homo sapiens, UniProt Q08345); assay: HotSpot in vitro kinase radiometric assay; assay type: biochemical; parameters: purchased Reaction Biology (HotSpot contract assay)
TRKC = target: T6, TRKC (Homo sapiens, UniProt Q16288); assay: HotSpot in vitro kinase radiometric assay; assay type: biochemical
T6 construct: purchased Reaction Biology (HotSpot contract assay)

PIM1 = system: PIM1; parameters: method as in ChEMBL23 (accessed: 23/08/2018); conditions: average of reported values; ref ChEMBL23 (accessed: 23/08/2018); cited from earlier work
PEAK1 = target: T7, PEAK1 (Homo sapiens, UniProt Q9H792); assay: HotSpot in vitro kinase radiometric assay; assay type: biochemical
T7 construct: purchased Reaction Biology (HotSpot contract assay)

ABL2/ARG = target: T8, ABL2/ARG (Homo sapiens, UniProt P42684); assay: HotSpot in vitro kinase radiometric assay; assay type: biochemical
T8 construct: purchased Reaction Biology (HotSpot contract assay)

LTK = system: LTK; parameters: method as in ChEMBL23 (accessed: 23/08/2018); conditions: average of reported values; ref ChEMBL23 (accessed: 23/08/2018); cited from earlier work
YES/YES1 = target: T9, YES/YES1 (Homo sapiens, UniProt P07947); assay: HotSpot in vitro kinase radiometric assay; assay type: biochemical
T9 construct: purchased Reaction Biology (HotSpot contract assay)

FYN = target: T10, FYN (Homo sapiens, UniProt P06241); assay: HotSpot in vitro kinase radiometric assay; assay type: biochemical
T10 construct: purchased Reaction Biology (HotSpot contract assay)

FGR = target: T11, FGR (Homo sapiens, UniProt P09769); assay: HotSpot in vitro kinase radiometric assay; assay type: biochemical
T11 construct: purchased Reaction Biology (HotSpot contract assay)

ABL1 = ABL1 (Homo sapiens, UniProt P00519); assay: HotSpot in vitro kinase radiometric assay; assay type: biochemical; parameters: purchased Reaction Biology (HotSpot contract assay)
MET = system: MET; parameters: method as in ChEMBL23 (accessed: 23/08/2018); conditions: average of reported values; ref ChEMBL23 (accessed: 23/08/2018); cited from earlier work
PASK = target: T12, PASK (Homo sapiens, UniProt Q96RG2); assay: HotSpot in vitro kinase radiometric assay; assay type: biochemical
T12 construct: purchased Reaction Biology (HotSpot contract assay)
In short: as §1

TRKA = target: T13, TRKA (Homo sapiens, UniProt P04629); assay: HotSpot in vitro kinase radiometric assay; assay type: biochemical
T13 construct: purchased Reaction Biology (HotSpot contract assay)
In short: as §1

LCK = target: T14, LCK (Homo sapiens, UniProt P06239); assay: HotSpot in vitro kinase radiometric assay; assay type: biochemical
T14 construct: purchased Reaction Biology (HotSpot contract assay)

T7 sequence (Q9H792 whole entry): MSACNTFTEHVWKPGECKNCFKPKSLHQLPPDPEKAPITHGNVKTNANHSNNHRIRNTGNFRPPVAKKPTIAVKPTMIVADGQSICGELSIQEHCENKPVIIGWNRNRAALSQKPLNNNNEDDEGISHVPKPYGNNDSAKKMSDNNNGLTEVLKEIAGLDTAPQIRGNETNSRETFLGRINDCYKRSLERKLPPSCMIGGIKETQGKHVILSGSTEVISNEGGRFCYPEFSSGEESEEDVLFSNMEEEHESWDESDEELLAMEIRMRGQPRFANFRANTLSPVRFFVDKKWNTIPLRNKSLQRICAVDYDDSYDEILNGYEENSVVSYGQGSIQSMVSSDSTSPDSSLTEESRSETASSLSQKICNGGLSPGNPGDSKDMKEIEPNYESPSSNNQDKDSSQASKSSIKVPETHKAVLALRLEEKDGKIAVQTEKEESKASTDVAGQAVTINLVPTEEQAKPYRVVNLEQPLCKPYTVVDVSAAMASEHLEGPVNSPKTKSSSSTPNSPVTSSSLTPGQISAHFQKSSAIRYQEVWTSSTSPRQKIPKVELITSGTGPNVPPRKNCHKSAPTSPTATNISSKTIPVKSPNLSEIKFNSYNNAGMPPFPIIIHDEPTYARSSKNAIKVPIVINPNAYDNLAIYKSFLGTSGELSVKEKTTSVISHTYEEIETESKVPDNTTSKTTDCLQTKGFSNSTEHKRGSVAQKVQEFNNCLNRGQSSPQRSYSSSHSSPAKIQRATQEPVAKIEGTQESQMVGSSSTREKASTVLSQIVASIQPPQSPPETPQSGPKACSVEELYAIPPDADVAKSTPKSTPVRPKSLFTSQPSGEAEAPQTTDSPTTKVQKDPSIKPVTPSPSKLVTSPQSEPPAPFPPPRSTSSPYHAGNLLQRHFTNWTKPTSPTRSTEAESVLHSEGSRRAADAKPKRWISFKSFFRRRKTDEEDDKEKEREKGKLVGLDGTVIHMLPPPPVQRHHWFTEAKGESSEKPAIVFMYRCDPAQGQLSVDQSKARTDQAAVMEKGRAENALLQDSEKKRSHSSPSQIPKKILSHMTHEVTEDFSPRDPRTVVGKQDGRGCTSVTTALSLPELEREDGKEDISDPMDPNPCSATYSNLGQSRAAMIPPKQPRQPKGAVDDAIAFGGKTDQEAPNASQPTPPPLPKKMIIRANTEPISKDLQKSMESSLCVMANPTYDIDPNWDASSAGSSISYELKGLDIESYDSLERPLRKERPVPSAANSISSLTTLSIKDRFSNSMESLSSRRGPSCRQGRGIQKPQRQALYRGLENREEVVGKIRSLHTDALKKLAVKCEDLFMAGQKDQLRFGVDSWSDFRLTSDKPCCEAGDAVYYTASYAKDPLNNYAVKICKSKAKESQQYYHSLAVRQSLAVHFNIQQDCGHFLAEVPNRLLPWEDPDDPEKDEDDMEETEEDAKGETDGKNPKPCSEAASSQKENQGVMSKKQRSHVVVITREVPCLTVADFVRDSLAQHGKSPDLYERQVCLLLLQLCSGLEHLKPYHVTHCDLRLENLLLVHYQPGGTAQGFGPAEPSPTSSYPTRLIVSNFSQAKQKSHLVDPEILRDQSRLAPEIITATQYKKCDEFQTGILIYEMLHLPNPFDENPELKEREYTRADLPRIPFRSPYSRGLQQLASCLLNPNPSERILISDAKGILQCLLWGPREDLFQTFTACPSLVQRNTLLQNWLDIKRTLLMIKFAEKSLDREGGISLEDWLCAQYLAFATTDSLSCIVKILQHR
ABL1, sequence (P00519 whole entry): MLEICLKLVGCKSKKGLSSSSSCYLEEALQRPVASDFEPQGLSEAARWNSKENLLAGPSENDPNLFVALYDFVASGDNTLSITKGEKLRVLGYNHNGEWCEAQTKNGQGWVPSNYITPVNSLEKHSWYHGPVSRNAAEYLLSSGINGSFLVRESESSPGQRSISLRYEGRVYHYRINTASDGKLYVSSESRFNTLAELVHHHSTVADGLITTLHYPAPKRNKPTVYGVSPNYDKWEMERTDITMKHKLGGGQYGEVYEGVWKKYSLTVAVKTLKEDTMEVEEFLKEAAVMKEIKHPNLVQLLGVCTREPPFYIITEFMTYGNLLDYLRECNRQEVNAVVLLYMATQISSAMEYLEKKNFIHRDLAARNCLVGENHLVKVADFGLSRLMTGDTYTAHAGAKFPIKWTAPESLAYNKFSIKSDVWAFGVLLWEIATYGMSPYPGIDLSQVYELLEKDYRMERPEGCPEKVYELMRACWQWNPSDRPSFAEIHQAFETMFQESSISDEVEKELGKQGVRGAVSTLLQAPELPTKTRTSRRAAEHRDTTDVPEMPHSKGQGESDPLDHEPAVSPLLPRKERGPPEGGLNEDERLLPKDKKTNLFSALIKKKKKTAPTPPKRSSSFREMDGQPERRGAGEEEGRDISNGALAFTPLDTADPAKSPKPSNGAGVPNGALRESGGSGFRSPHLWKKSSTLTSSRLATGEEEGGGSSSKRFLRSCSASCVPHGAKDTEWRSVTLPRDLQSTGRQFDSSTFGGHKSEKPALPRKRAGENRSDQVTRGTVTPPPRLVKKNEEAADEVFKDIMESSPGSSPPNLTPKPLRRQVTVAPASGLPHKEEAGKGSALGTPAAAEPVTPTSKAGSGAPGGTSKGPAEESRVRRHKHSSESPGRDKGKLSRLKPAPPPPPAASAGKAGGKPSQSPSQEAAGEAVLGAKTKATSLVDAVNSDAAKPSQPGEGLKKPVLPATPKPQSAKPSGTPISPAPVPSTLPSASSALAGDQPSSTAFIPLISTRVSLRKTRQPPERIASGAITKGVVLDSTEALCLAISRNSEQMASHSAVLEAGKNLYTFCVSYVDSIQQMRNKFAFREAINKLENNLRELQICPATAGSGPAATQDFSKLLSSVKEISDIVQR
T8 sequence (P42684 whole entry): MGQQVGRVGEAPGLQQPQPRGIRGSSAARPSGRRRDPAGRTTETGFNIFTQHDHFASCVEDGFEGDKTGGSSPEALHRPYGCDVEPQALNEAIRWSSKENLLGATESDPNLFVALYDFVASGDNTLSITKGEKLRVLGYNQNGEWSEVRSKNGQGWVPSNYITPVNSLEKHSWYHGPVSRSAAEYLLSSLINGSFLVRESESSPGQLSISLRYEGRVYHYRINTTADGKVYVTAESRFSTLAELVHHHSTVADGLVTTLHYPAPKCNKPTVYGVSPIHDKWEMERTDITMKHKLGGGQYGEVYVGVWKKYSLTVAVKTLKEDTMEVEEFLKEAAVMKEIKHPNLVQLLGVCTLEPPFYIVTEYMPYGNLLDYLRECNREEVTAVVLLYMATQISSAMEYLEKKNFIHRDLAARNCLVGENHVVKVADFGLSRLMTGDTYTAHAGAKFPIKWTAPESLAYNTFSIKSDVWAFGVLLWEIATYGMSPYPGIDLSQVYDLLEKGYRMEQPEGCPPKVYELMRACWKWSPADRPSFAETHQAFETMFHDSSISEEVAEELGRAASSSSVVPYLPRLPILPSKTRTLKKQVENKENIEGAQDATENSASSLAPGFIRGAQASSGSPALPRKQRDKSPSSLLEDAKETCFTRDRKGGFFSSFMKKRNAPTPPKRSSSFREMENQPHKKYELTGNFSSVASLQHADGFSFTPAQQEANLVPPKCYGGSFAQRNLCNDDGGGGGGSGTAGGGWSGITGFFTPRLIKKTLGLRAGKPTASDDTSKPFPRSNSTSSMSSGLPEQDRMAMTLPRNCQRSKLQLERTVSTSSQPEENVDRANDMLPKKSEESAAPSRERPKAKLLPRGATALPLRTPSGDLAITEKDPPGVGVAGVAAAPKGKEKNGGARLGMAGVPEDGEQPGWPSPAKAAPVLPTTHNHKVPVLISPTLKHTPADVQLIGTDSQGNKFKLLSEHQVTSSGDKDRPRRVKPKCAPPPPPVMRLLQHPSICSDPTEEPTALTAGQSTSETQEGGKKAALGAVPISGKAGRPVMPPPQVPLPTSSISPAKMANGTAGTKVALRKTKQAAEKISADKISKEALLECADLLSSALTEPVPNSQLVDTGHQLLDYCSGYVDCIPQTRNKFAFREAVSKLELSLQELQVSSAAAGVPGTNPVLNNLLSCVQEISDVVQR
T2 sequence (Q16654 whole entry): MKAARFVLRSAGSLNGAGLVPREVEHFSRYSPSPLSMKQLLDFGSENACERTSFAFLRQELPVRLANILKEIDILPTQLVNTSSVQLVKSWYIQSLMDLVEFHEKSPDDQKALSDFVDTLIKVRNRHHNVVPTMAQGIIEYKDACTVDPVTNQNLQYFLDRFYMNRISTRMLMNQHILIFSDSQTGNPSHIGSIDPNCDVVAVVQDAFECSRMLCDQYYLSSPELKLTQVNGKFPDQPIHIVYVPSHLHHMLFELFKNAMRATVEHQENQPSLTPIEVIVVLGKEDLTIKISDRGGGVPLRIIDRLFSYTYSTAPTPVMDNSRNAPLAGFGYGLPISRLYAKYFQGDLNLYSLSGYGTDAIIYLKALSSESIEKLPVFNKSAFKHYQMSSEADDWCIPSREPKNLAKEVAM
T11 sequence (P09769 whole entry): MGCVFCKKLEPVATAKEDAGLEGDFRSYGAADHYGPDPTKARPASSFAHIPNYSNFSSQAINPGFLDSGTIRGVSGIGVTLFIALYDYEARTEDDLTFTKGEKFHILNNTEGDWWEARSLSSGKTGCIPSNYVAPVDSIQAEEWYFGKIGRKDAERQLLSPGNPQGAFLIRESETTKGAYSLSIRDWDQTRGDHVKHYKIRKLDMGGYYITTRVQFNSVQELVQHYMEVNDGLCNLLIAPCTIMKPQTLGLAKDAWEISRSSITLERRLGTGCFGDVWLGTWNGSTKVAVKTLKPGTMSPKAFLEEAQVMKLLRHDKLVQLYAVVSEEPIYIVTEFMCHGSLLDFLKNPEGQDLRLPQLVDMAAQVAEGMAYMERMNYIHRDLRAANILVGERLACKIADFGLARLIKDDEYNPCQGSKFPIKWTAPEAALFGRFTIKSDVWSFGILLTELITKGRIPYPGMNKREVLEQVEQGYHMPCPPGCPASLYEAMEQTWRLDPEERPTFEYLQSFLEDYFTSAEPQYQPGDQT

remaining activity at 10 µM (BLK; BLK, 10uM, ATP 10 uM, Data 1, Data 2, read-out: % Enzyme Activity (relative to DMSO controls)): 15.3%
inhibition at 10 µM (BLK; read-out: % inhibition at 10 uM: BLK, 10 μM, Fig 6C median ± standard deviation (n = 2)): 85 ± 1%
remaining activity at 10 µM (PDK4/PDKH4; PDK4/PDKH4, 10uM, ATP 30 uM, Data 1, Data 2, read-out: % Enzyme Activity (relative to DMSO controls)): 66.3%
inhibition at 10 µM (PDK4/PDKH4; read-out: % inhibition at 10 uM: PDK4, 10 μM, Fig 6C median ± standard deviation (n = 2)): 33 ± 1%
remaining activity at 10 µM (PDK2/PDHK2; PDK2/PDHK2, 10uM, ATP 15 uM, Data 1, Data 2, read-out: % Enzyme Activity (relative to DMSO controls)): 42.8%
inhibition at 10 µM (PDK2/PDHK2; read-out: % inhibition at 10 uM: PDK2, 10 μM, Fig 6C median ± standard deviation (n = 2)): 50 ± 10%
remaining activity at 10 µM (LYN B; LYN B, 10uM, ATP 20 uM, Data 1, Data 2, read-out: % Enzyme Activity (relative to DMSO controls)): 100%
inhibition at 10 µM (LYN B; read-out: % inhibition at 10 uM: LYN B, 10 μM, Fig 6C median ± standard deviation (n = 2)): -1 ± 1%
remaining activity at 10 µM (c-Src; c-Src, 10uM, ATP 15 uM, Data 1, Data 2, read-out: % Enzyme Activity (relative to DMSO controls)): 86.2%
inhibition at 10 µM (c-Src; read-out: % inhibition at 10 uM: SRC, 10 μM, Fig 6C median ± standard deviation (n = 2)): 14 ± 1%
remaining activity at 10 µM (DDR1; DDR1, 10uM, ATP 100 uM, Data 1, Data 2, read-out: % Enzyme Activity (relative to DMSO controls)): 20.1%
inhibition at 10 µM (DDR1; read-out: % inhibition at 10 uM: DDR1, 10 μM, Fig 6C median ± standard deviation (n = 2)): 81%
remaining activity at 10 µM (TRKC; TRKC, 10uM, ATP 100 uM, Data 1, Data 2, read-out: % Enzyme Activity (relative to DMSO controls)): 96.1%
inhibition at 10 µM (TRKC; read-out: % inhibition at 10 uM: TRKC, 10 μM, Fig 6C median ± standard deviation (n = 2)): 5 ± 1%
% inhibition at 10 uM: PEAK1 (PEAK1; 10 μM, Fig 6C median ± standard deviation (n = 2)): 83 ± 1%
remaining activity at 10 µM (PEAK1; PEAK1, 10uM, ATP 30 uM, Data 1, Data 2, read-out: % Enzyme Activity (relative to DMSO controls)): 16.4%
inhibition at 10 µM (PEAK1; read-out: % inhibition at 10 uM: PEAK1, 10 μM, Fig 6C median ± standard deviation (n = 2)): > 70%
remaining activity at 10 µM (ABL2/ARG; ABL2/ARG, 10uM, ATP 30 uM, Data 1, Data 2, read-out: % Enzyme Activity (relative to DMSO controls)): 63.6%
inhibition at 10 µM (ABL2/ARG; read-out: % inhibition at 10 uM: ABL2, 10 μM, Fig 6C median ± standard deviation (n = 2)): 32 ± 7%
remaining activity at 10 µM (YES/YES1; YES/YES1, 10uM, ATP 50 uM, Data 1, Data 2, read-out: % Enzyme Activity (relative to DMSO controls)): 92%
inhibition at 10 µM (YES/YES1; read-out: % inhibition at 10 uM: YES, 10 μM, Fig 6C median ± standard deviation (n = 2)): 9 ± 1%
remaining activity at 10 µM (FYN; FYN, 10uM, ATP 30 uM, Data 1, Data 2, read-out: % Enzyme Activity (relative to DMSO controls)): 31.4%
inhibition at 10 µM (FYN; read-out: % inhibition at 10 uM: FYN, 10 μM, Fig 6C median ± standard deviation (n = 2)): 69%
remaining activity at 10 µM (FGR; FGR, 10uM, ATP 50 uM, Data 1, Data 2, read-out: % Enzyme Activity (relative to DMSO controls)): 26.1%
inhibition at 10 µM (FGR; read-out: % inhibition at 10 uM: FGR, 10 μM, Fig 6C median ± standard deviation (n = 2)): 71 ± 4%
remaining activity at 10 µM (ABL1; ABL1, 10uM, ATP 40 uM, Data 1, Data 2, read-out: % Enzyme Activity (relative to DMSO controls)): 80%
inhibition at 10 µM (ABL1; read-out: % inhibition at 10 uM: ABL1, 10 μM, Fig 6C median ± standard deviation (n = 2)): 19 ± 2%
remaining activity at 10 µM (PASK; PASK, 10uM, ATP 50 uM, Data 1, Data 2, read-out: % Enzyme Activity (relative to DMSO controls)): 101%
inhibition at 10 µM (PASK; read-out: % inhibition at 10 uM: PASK, 10 μM, Fig 6C median ± standard deviation (n = 2)): 0%
remaining activity at 10 µM (TRKA; TRKA, 10uM, ATP 100 uM, Data 1, Data 2, read-out: % Enzyme Activity (relative to DMSO controls)): 34.6%
inhibition at 10 µM (TRKA; read-out: % inhibition at 10 uM: TRKA, 10 μM, Fig 6C median ± standard deviation (n = 2)): 66 ± 1%
remaining activity at 10 µM (LCK; LCK, 10uM, ATP 15 uM, Data 1, Data 2, read-out: % Enzyme Activity (relative to DMSO controls)): 61.4%
inhibition at 10 µM (LCK; read-out: % inhibition at 10 uM: LCK, 10 μM, Fig 6C median ± standard deviation (n = 2)): 36 ± 4%
Compound: CCc1cc(-c2[nH]nc(C)c2-c2ccc3c(c2)OCCO3)c(O)cc1O [CCT018159]
pActivity, HSP90AB1 (HSP90AB1): 6.55
pActivity, PIM1 (PIM1): 5.8
pActivity, LTK (LTK): 5.6
pActivity, MET (MET): 5.6
